Results as given in PubChem BioAssay AID1918956 (Molecular Pharmacology Branch, DTP, NCI, 2023).
pIC50: −log10 of the molar value. Values joined by “and” are separate entries in the source; they are usually repeats but may differ in a detail not shown here. Identical values can stand only once.

Tested on: OVCAR-5 complex spheroids, viability
Assay: Anticancer human tumor OVCAR-5 cell line growth inhibition;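 note: spheroids exposed to agents for seven days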;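 for viability, T/C: 100% = DMSO vehicle control wells viability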
Details: for viability, T/C: stronger effect = lower value
How it was run: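 Complex spheroids of tumor cells with HUVEC and human MSCs, exposed to iadademstat combined with other agents. Each agent tested in half-log steps from near clinical Cmax (else 10 microM top), DMSO ≤0.25%.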

[1] = curve of first compound, second compound 0.1 µM
[2] = curve of first compound, second compound 0.316 µM
[3] = curve of first compound, second compound 1 µM
[4] = curve of first compound, second compound 3.16 µM
[5] = curve of first compound, second compound 10 µM
[6] = second compound 0.1 µM, first compound 0.0316 µM
[7] = second compound 0.1 µM, first compound 0.1 µM
[8] = second compound 0.1 µM, first compound 0.316 µM
[9] = second compound 0.1 µM, first compound 1 µM
[10] = second compound 0.1 µM, first compound 3.16 µM
[11] = second compound 0.1 µM, first compound 10 µM
[12] = second compound 0.316 µM, first compound 0.0316 µM
[13] = second compound 0.316 µM, first compound 0.1 µM
[14] = second compound 0.316 µM, first compound 0.316 µM
[15] = second compound 0.316 µM, first compound 1 µM
[16] = second compound 0.316 µM, first compound 3.16 µM
[17] = second compound 0.316 µM, first compound 10 µM
[18] = second compound 1 µM, first compound 0.0316 µM
[19] = second compound 1 µM, first compound 0.1 µM
[20] = second compound 1 µM, first compound 0.316 µM
[21] = second compound 1 µM, first compound 1 µM
[22] = second compound 1 µM, first compound 3.16 µM
[23] = second compound 1 µM, first compound 10 µM
[24] = second compound 3.16 µM, first compound 0.0316 µM
[25] = second compound 3.16 µM, first compound 0.1 µM
[26] = second compound 3.16 µM, first compound 0.316 µM
[27] = second compound 3.16 µM, first compound 1 µM
[28] = second compound 3.16 µM, first compound 3.16 µM
[29] = second compound 3.16 µM, first compound 10 µM
[30] = second compound 10 µM, first compound 0.0316 µM
[31] = second compound 10 µM, first compound 0.1 µM
[32] = second compound 10 µM, first compound 0.316 µM
[33] = second compound 10 µM, first compound 1 µM
[34] = second compound 10 µM, first compound 3.16 µM
[35] = second compound 10 µM, first compound 10 µM
[36] = second compound 0.1 µM, first compound 0.00949 µM
[37] = second compound 0.1 µM, first compound 0.03 µM
[38] = second compound 0.1 µM, first compound 0.0949 µM
[39] = second compound 0.1 µM, first compound 0.3 µM
[40] = second compound 0.1 µM, first compound 0.949 µM
[41] = second compound 0.1 µM, first compound 3 µM
[42] = second compound 0.316 µM, first compound 0.00949 µM
[43] = second compound 0.316 µM, first compound 0.03 µM
[44] = second compound 0.316 µM, first compound 0.0949 µM
[45] = second compound 0.316 µM, first compound 0.3 µM
[46] = second compound 0.316 µM, first compound 0.949 µM
[47] = second compound 0.316 µM, first compound 3 µM
[48] = second compound 1 µM, first compound 0.00949 µM
[49] = second compound 1 µM, first compound 0.03 µM
[50] = second compound 1 µM, first compound 0.0949 µM
[51] = second compound 1 µM, first compound 0.3 µM
[52] = second compound 1 µM, first compound 0.949 µM
[53] = second compound 1 µM, first compound 3 µM
[54] = second compound 3.16 µM, first compound 0.00949 µM
[55] = second compound 3.16 µM, first compound 0.03 µM
[56] = second compound 3.16 µM, first compound 0.0949 µM
[57] = second compound 3.16 µM, first compound 0.3 µM
[58] = second compound 3.16 µM, first compound 0.949 µM
[59] = second compound 3.16 µM, first compound 3 µM
[60] = second compound 10 µM, first compound 0.00949 µM
[61] = second compound 10 µM, first compound 0.03 µM
[62] = second compound 10 µM, first compound 0.0949 µM
[63] = second compound 10 µM, first compound 0.3 µM
[64] = second compound 10 µM, first compound 0.949 µM
[65] = second compound 10 µM, first compound 3 µM

Nc1ccccc1NC(=O)c1ccc(CNC(=O)OCc2cccnc2)cc1
viability, T/C (compound 0.00949 µM): 102% and 86.1% | viability, T/C (compound 0.03 µM): 81.6% and 80.2% | viability, T/C (compound 0.0949 µM): 63.8% and 59.6% | viability, T/C (compound 0.3 µM): 41.9% and 34.8% | viability, T/C (compound 0.949 µM): 23.9% and 19.3% | viability, T/C (compound 3 µM): 8.2% and 8.35% | pIC50 (curve of compound): 6.71 and 6.82

O=C(c1cc(Cc2n[nH]c(=O)c3ccccc23)ccc1F)N1CCN(C(=O)C2CC2)CC1
viability, T/C (compound 0.0316 µM): 92.2% and 111% | viability, T/C (compound 0.1 µM): 109% and 98.7% | viability, T/C (compound 0.316 µM): 95.8% and 102% | viability, T/C (compound 1 µM): 90.8% and 91.7% | viability, T/C (compound 3.16 µM): 87.7% and 73.7% | viability, T/C (compound 10 µM): 79.7% and 69.6% | pIC50 (curve of compound): < 5.00

COc1ccc([C@@H](O)c2cc(-c3ncnc4cc(N5CCOCC5)ccc34)c(F)cc2Cl)nn1 + NC1CCC(NC2CC2c2ccccc2)CC1
pIC50 [1]: 5.72 | pIC50 [2]: 5.87 | pIC50 [3]: 5.72 | pIC50 [4]: 5.79 | pIC50 [5]: 6.00 | viability, T/C [6]: 88.3% | viability, T/C [7]: 91.5% | viability, T/C [8]: 79% | viability, T/C [9]: 56% | viability, T/C [10]: 46% | viability, T/C [11]: 26.1% | viability, T/C [12]: 99.3% | viability, T/C [13]: 93.1% | viability, T/C [14]: 69.6% | viability, T/C [15]: 54.5% | viability, T/C [16]: 40% | viability, T/C [17]: 26% | viability, T/C [18]: 88.2% | viability, T/C [19]: 80.2% | viability, T/C [20]: 66.4% | viability, T/C [21]: 60.9% | viability, T/C [22]: 44.2% | viability, T/C [23]: 28% | viability, T/C [24]: 93.3% | viability, T/C [25]: 83.2% | viability, T/C [26]: 69.3% | viability, T/C [27]: 57.5% | viability, T/C [28]: 40.5% | viability, T/C [29]: 26.1% | viability, T/C [30]: 82.5% | viability, T/C [31]: 83% | viability, T/C [32]: 63% | viability, T/C [33]: 50.8% | viability, T/C [34]: 35.8% | viability, T/C [35]: 25.6%

CC1COCCN1c1cc(C2(S(C)(=N)=O)CC2)nc(-c2ccnc3[nH]ccc23)n1 (centres undefined) + NC1CC1c1ccc(-c2cccc(O)c2)cc1
pIC50 [1]: 6.07 | pIC50 [2]: 6.06 | pIC50 [3]: 6.10 | pIC50 [4]: 6.18 | pIC50 [5]: 6.16 | viability, T/C [6]: 80.6% | viability, T/C [7]: 78.3% | viability, T/C [8]: 72.8% | viability, T/C [9]: 45.9% | viability, T/C [10]: 32% | viability, T/C [11]: 26.7% | viability, T/C [12]: 89.2% | viability, T/C [13]: 95.6% | viability, T/C [14]: 80.6% | viability, T/C [15]: 44.9% | viability, T/C [16]: 33% | viability, T/C [17]: 25.6% | viability, T/C [18]: 71.4% | viability, T/C [19]: 75.4% | viability, T/C [20]: 74.2% | viability, T/C [21]: 44% | viability, T/C [22]: 29.9% | viability, T/C [23]: 25% | viability, T/C [24]: 88.8% | viability, T/C [25]: 77.6% | viability, T/C [26]: 62.1% | viability, T/C [27]: 42.9% | viability, T/C [28]: 32% | viability, T/C [29]: 24.8% | viability, T/C [30]: 76.9% | viability, T/C [31]: 78.6% | viability, T/C [32]: 65.7% | viability, T/C [33]: 42.3% | viability, T/C [34]: 32.3% | viability, T/C [35]: 27%

Nc1ccccc1NC(=O)c1ccc(CNC(=O)OCc2cccnc2)cc1 + NC1CCC(NC2CC2c2ccccc2)CC1
pIC50 [1]: 6.61 | pIC50 [2]: 6.59 | pIC50 [3]: 6.53 | pIC50 [4]: 6.60 | pIC50 [5]: 6.77 | viability, T/C [36]: 97.2% | viability, T/C [37]: 88.6% | viability, T/C [38]: 69% | viability, T/C [39]: 46.3% | viability, T/C [40]: 23.8% | viability, T/C [41]: 9.78% | viability, T/C [42]: 109% | viability, T/C [43]: 90.8% | viability, T/C [44]: 74.4% | viability, T/C [45]: 45.5% | viability, T/C [46]: 25% | viability, T/C [47]: 10.4% | viability, T/C [48]: 101% | viability, T/C [49]: 97% | viability, T/C [50]: 75.6% | viability, T/C [51]: 48% | viability, T/C [52]: 27.3% | viability, T/C [53]: 10.3% | viability, T/C [54]: 98.9% | viability, T/C [55]: 78.5% | viability, T/C [56]: 69.7% | viability, T/C [57]: 47% | viability, T/C [58]: 26.5% | viability, T/C [59]: 10.8% | viability, T/C [60]: 86.2% | viability, T/C [61]: 71.6% | viability, T/C [62]: 57.2% | viability, T/C [63]: 42.4% | viability, T/C [64]: 28.6% | viability, T/C [65]: 9.2%

O=C(C=Cn1cnc(-c2cc(C(F)(F)F)cc(C(F)(F)F)c2)n1)NNc1cnccn1 + NC1CC1c1ccc(-c2cccc(O)c2)cc1
pIC50 [1]: 7.25 | pIC50 [2]: 7.30 | pIC50 [3]: 7.41 | pIC50 [4]: 7.64 | pIC50 [5]: 7.70 | viability, T/C (second compound 0.1 µM, first compound 0.00316 µM): 88.9% | viability, T/C (second compound 0.1 µM, first compound 0.01 µM): 73.9% | viability, T/C [6]: 57.2% | viability, T/C [7]: 42.1% | viability, T/C [8]: 38% | viability, T/C [9]: 33.9% | viability, T/C (second compound 0.316 µM, first compound 0.00316 µM): 87.8% | viability, T/C (second compound 0.316 µM, first compound 0.01 µM): 72% | viability, T/C [12]: 54.9% | viability, T/C [13]: 42.2% | viability, T/C [14]: 39.1% | viability, T/C [15]: 34.4% | viability, T/C (second compound 1 µM, first compound 0.00316 µM): 84% | viability, T/C (second compound 1 µM, first compound 0.01 µM): 65.9% | viability, T/C [18]: 53.8% | viability, T/C [19]: 39.4% | viability, T/C [20]: 36.2% | viability, T/C [21]: 31.7% | viability, T/C (second compound 3.16 µM, first compound 0.00316 µM): 81.7% | viability, T/C (second compound 3.16 µM, first compound 0.01 µM): 62.9% | viability, T/C [24]: 43.1% | viability, T/C [25]: 38.5% | viability, T/C [26]: 34.7% | viability, T/C [27]: 29.7% | viability, T/C (second compound 10 µM, first compound 0.00316 µM): 79% | viability, T/C (second compound 10 µM, first compound 0.01 µM): 60.8% | viability, T/C [30]: 42.6% | viability, T/C [31]: 36.6% | viability, T/C [32]: 33.6% | viability, T/C [33]: 35.2%

Nc1ccccc1NC(=O)c1ccc(CNC(=O)OCc2cccnc2)cc1 + NC1CC1c1ccc(-c2cccc(O)c2)cc1
pIC50 [1]: 6.91 | pIC50 [2]: 6.76 | pIC50 [3]: 6.84 | pIC50 [4]: 6.95 | pIC50 [5]: 6.91 | viability, T/C [36]: 83.1% | viability, T/C [37]: 71.6% | viability, T/C [38]: 54.5% | viability, T/C [39]: 34.8% | viability, T/C [40]: 19.2% | viability, T/C [41]: 8.11% | viability, T/C [42]: 84.9% | viability, T/C [43]: 79.7% | viability, T/C [44]: 65.3% | viability, T/C [45]: 35.5% | viability, T/C [46]: 19.4% | viability, T/C [47]: 8.17% | viability, T/C [48]: 75.6% | viability, T/C [49]: 65.9% | viability, T/C [50]: 62.2% | viability, T/C [51]: 32.4% | viability, T/C [52]: 19.8% | viability, T/C [53]: 8.19% | viability, T/C [54]: 84% | viability, T/C [55]: 68.6% | viability, T/C [56]: 55.5% | viability, T/C [57]: 30.6% | viability, T/C [58]: 17.8% | viability, T/C [59]: 7.56% | viability, T/C [60]: 79.6% | viability, T/C [61]: 71.3% | viability, T/C [62]: 55.5% | viability, T/C [63]: 32.1% | viability, T/C [64]: 19.5% | viability, T/C [65]: 9.48%
